System: MV-4-11 cells
Experiment: Gene expression microarray analysis (Affymetrix PrimeView) and GSEA
Type: cell-based, human
Parameters: RFU PODN (11730768_x_at) / Fold change /veh PODN (11730768_x_at) / RFU LINC00158 (11744669_a_at) / Fold change /veh LINC00158 (11744669_a_at) / RFU DUSP10 (11751237_a_at) / Fold change /veh DUSP10 (11751237_a_at) / RFU ID3 (11757404_x_at) / Fold change /veh ID3 (11757404_x_at) / RFU PLEKHG5 (11737974_s_at) / Fold change /veh PLEKHG5 (11737974_s_at) / RFU LRRC4B (11730491_at) / Fold change /veh LRRC4B (11730491_at) / RFU GIMAP4 (11747438_a_at) / Fold change /veh GIMAP4 (11747438_a_at) / RFU KRT8 (11758183_x_at) / Fold change /veh KRT8 (11758183_x_at) / RFU CNN1 (11734310_a_at) / Fold change /veh CNN1 (11734310_a_at) / RFU VPS37D (11726825_at) / Fold change /veh VPS37D (11726825_at) / RFU C10orf10 (11716522_x_at) / Fold change /veh C10orf10 (11716522_x_at) / RFU KIR2DL2 /// KIR2DL4 /// KIR2DL5A /// KIR2DL5B /// KIR2DS1 /// KIR2DS2 /// KIR2DS3 /// KIR2DS4 /// KIR3DL3 /// KIR3DL3 /// KIR3DS1 (11738374_at) / Fold change /veh KIR2DL2 /// KIR2DL4 /// KIR2DL5A /// KIR2DL5B /// KIR2DS1 /// KIR2DS2 /// KIR2DS3 /// KIR2DS4 /// KIR3DL3 /// KIR3DL3 /// KIR3DS1 (11738374_at) / RFU C1QL1 (11718748_at) / Fold change /veh C1QL1 (11718748_at) / RFU TMPRSS4 (11747572_a_at) / Fold change /veh TMPRSS4 (11747572_a_at) / RFU HAMP (11756126_x_at) / Fold change /veh HAMP (11756126_x_at) / RFU RNFT2 (11725882_a_at) / Fold change /veh RNFT2 (11725882_a_at) / RFU NR4A2 (11747474_a_at) / Fold change /veh NR4A2 (11747474_a_at) / RFU ABCC12 (11746883_a_at) / Fold change /veh ABCC12 (11746883_a_at) / RFU TMEM136 (11760407_x_at) / Fold change /veh TMEM136 (11760407_x_at) / RFU CLDN22 /// WWC2 (11732394_at) / Fold change /veh CLDN22 /// WWC2 (11732394_at) / RFU HLA-DPB1 (11760878_x_at) / Fold change /veh HLA-DPB1 (11760878_x_at) / RFU SPINT1 (11716480_a_at) / Fold change /veh SPINT1 (11716480_a_at) / RFU GAP43 (11754022_s_at) / Fold change /veh GAP43 (11754022_s_at) / RFU A4GNT (11735810_at) / Fold change /veh A4GNT (11735810_at) / RFU PRB3 (11715151_x_at) / Fold change /veh PRB3 (11715151_x_at) / RFU TUBB4B (11761932_at) / Fold change /veh TUBB4B (11761932_at) / RFU CAPN14 (11732068_a_at) / Fold change /veh CAPN14 (11732068_a_at) / RFU TMCC2 (11721928_a_at) / Fold change /veh TMCC2 (11721928_a_at) / RFU IRGQ (11745062_a_at) / Fold change /veh IRGQ (11745062_a_at) / RFU FAM174B (11720279_a_at) / Fold change /veh FAM174B (11720279_a_at) / RFU TMPRSS4 (11748680_a_at) / Fold change /veh TMPRSS4 (11748680_a_at) / RFU FAM212B (11763350_a_at) / Fold change /veh FAM212B (11763350_a_at) / RFU PLEKHG5 (11743358_a_at) / Fold change /veh PLEKHG5 (11743358_a_at) / RFU ZSCAN30 (11745921_a_at) / Fold change /veh ZSCAN30 (11745921_a_at) / RFU CMKLR1 (11741424_a_at) / Fold change /veh CMKLR1 (11741424_a_at) / RFU LOC101060620 /// MAPK8IP1 (11723275_at) / Fold change /veh LOC101060620 /// MAPK8IP1 (11723275_at) / RFU SPTSSB (11747773_x_at) / Fold change /veh SPTSSB (11747773_x_at) / RFU PRSS12 (11739890_at) / Fold change /veh PRSS12 (11739890_at) / RFU BIN1 (11741810_x_at) / Fold change /veh BIN1 (11741810_x_at) / RFU WNT11 (11732464_a_at) / Fold change /veh WNT11 (11732464_a_at) / RFU C10orf10 (11716521_a_at) / Fold change /veh C10orf10 (11716521_a_at) / RFU C5orf56 (11738089_at) / Fold change /veh C5orf56 (11738089_at) / RFU CYB561 (11721691_x_at) / Fold change /veh CYB561 (11721691_x_at) / RFU ANKRD19P (11752326_a_at) / Fold change /veh ANKRD19P (11752326_a_at) / RFU OR2T12 /// OR2T33 /// OR2T8 (11738714_s_at) / Fold change /veh OR2T12 /// OR2T33 /// OR2T8 (11738714_s_at) / RFU VCAN (11748164_a_at) / Fold change /veh VCAN (11748164_a_at) / RFU JSRP1 (11732532_at) / Fold change /veh JSRP1 (11732532_at) / RFU KRTAP10-11 (11738290_x_at) / Fold change /veh KRTAP10-11 (11738290_x_at) / RFU MYO3A (11730013_a_at) / Fold change /veh MYO3A (11730013_a_at) / RFU EBF3 (11725865_a_at) / Fold change /veh EBF3 (11725865_a_at) / RFU CAMK2N1 (11719241_x_at) / Fold change /veh CAMK2N1 (11719241_x_at) / RFU C5orf56 (11738088_a_at) / Fold change /veh C5orf56 (11738088_a_at) / RFU OLFML3 (11715873_a_at) / Fold change /veh OLFML3 (11715873_a_at) / RFU LOC100653217 /// NTM (11731650_a_at) / Fold change /veh LOC100653217 /// NTM (11731650_a_at) / RFU MAPK11 (11762145_a_at) / Fold change /veh MAPK11 (11762145_a_at) / RFU FIZ1 (11724087_x_at) / Fold change /veh FIZ1 (11724087_x_at) / RFU OASL (11726364_x_at) / Fold change /veh OASL (11726364_x_at) / RFU SOX15 (11748057_x_at) / Fold change /veh SOX15 (11748057_x_at) / RFU CD79A (11719716_a_at) / Fold change /veh CD79A (11719716_a_at) / RFU HIST1H1D (11736915_at) / Fold change /veh HIST1H1D (11736915_at) / RFU CASKIN2 (11723855_a_at) / Fold change /veh CASKIN2 (11723855_a_at) / RFU LOC730098 (11760151_x_at) / Fold change /veh LOC730098 (11760151_x_at) / RFU OR4N2 (11742367_at) / Fold change /veh OR4N2 (11742367_at) / RFU PRRT2 (11749266_a_at) / Fold change /veh PRRT2 (11749266_a_at) / RFU SNX32 (11753110_a_at) / Fold change /veh SNX32 (11753110_a_at) / RFU CDHR5 (11726645_a_at) / Fold change /veh CDHR5 (11726645_a_at) / RFU RCAN1 (11760418_a_at) / Fold change /veh RCAN1 (11760418_a_at) / RFU FAM167A (11723789_a_at) / Fold change /veh FAM167A (11723789_a_at) / RFU FAM26E (11764081_at) / Fold change /veh FAM26E (11764081_at) / RFU ISYNA1 (11749810_s_at) / Fold change /veh ISYNA1 (11749810_s_at) / RFU ACY1 (11761880_at) / Fold change /veh ACY1 (11761880_at) / RFU 11764098_at / Fold change /veh 11764098_at / RFU SAMD14 (11745864_x_at) / Fold change /veh SAMD14 (11745864_x_at) / RFU NPB (11741838_a_at) / Fold change /veh NPB (11741838_a_at) / RFU TMPRSS6 (11731388_a_at) / Fold change /veh TMPRSS6 (11731388_a_at) / RFU KRTAP10-2 (11738614_at) / Fold change /veh KRTAP10-2 (11738614_at) / RFU ARHGAP8 /// PRR5-ARHGAP8 (11727945_x_at) / Fold change /veh ARHGAP8 /// PRR5-ARHGAP8 (11727945_x_at) / RFU KRTAP5-7 /// NADSYN1 (11734609_at) / Fold change /veh KRTAP5-7 /// NADSYN1 (11734609_at) / RFU RASL12 (11751679_a_at) / Fold change /veh RASL12 (11751679_a_at) / RFU CDKN2B (11736163_a_at) / Fold change /veh CDKN2B (11736163_a_at) / RFU PRF1 (11729649_at) / Fold change /veh PRF1 (11729649_at) / RFU, ZNF638 /// ZNF638-IT1 / Fold change vs veh, ZNF638 /// ZNF638-IT1 / RFU, PANK3 / Fold change vs veh, PANK3 / RFU, SH3YL1 / Fold change vs veh, SH3YL1 / RFU, ZEB2 / Fold change vs veh, ZEB2 / RFU, NRIP1 / Fold change vs veh, NRIP1 / RFU, PTTG1IP / Fold change vs veh, PTTG1IP / RFU, CAPN2 / Fold change vs veh, CAPN2 / RFU, MED14 / Fold change vs veh, MED14 / RFU, SNORA58 / Fold change vs veh, SNORA58 / RFU, C1orf63 / Fold change vs veh, C1orf63 / RFU, LRRFIP1 / Fold change vs veh, LRRFIP1 / RFU, NDUFAF7 / Fold change vs veh, NDUFAF7 / RFU, SLC12A2 / Fold change vs veh, SLC12A2 / RFU, IBTK / Fold change vs veh, IBTK / RFU, ESF1 / Fold change vs veh, ESF1 / Fold change vs veh, TMEM50B / RFU, TAOK1 / Fold change vs veh, TAOK1 / RFU, ACBD3 / Fold change vs veh, ACBD3 / RFU, TMA16 / Fold change vs veh, TMA16 / RFU, RWDD3 / Fold change vs veh, RWDD3 / RFU, BCAT1 / Fold change vs veh, BCAT1 / RFU, EDEM3 / Fold change vs veh, EDEM3 / RFU, TMEM33 / Fold change vs veh, TMEM33 / RFU, WDR75 / Fold change vs veh, WDR75 / RFU, AHCTF1 / Fold change vs veh, AHCTF1 / RFU, TFRC / Fold change vs veh, TFRC / RFU, ZDHHC17 / Fold change vs veh, ZDHHC17 / RFU, NOM1 / Fold change vs veh, NOM1 / RFU, ARL8B / Fold change vs veh, ARL8B / RFU, ZBTB11 / Fold change vs veh, ZBTB11 / RFU, TAMM41 / Fold change vs veh, TAMM41 / RFU, KIAA1704 /// LOC100996395 / Fold change vs veh, KIAA1704 /// LOC100996395 / RFU, ING1 / Fold change vs veh, ING1 / RFU, TRMT61B / Fold change vs veh, TRMT61B / RFU, FUBP3 / Fold change vs veh, FUBP3 / RFU, TP53 / Fold change vs veh, TP53 / RFU, TNKS2 / Fold change vs veh, TNKS2 / RFU, ZFP14 / Fold change vs veh, ZFP14 / RFU, ACTR2 / Fold change vs veh, ACTR2 / RFU, PPP3R1 / Fold change vs veh, PPP3R1 / RFU, PIK3R1 / Fold change vs veh, PIK3R1 / RFU, HNRNPA1 / Fold change vs veh, HNRNPA1 / RFU, RNF170 / Fold change vs veh, RNF170 / RFU, ZNF28 / Fold change vs veh, ZNF28 / RFU, RNGTT / Fold change vs veh, RNGTT / RFU, OGT / Fold change vs veh, OGT / RFU, BRD1 / Fold change vs veh, BRD1 / RFU, MARS / Fold change vs veh, MARS / RFU, ZNF655 / Fold change vs veh, ZNF655 / RFU, FAHD1 / Fold change vs veh, FAHD1 / RFU, BDP1 / Fold change vs veh, BDP1 / RFU, LRRCC1 / Fold change vs veh, LRRCC1 / RFU, ARID1A / Fold change vs veh, ARID1A / RFU, ZNF146 / Fold change vs veh, ZNF146 / RFU, ZNF330 / Fold change vs veh, ZNF330 / RFU, GPN3 / Fold change vs veh, GPN3 / RFU, C9orf123 / Fold change vs veh, C9orf123 / RFU, N4BP2L2 / Fold change vs veh, N4BP2L2 / RFU, ARFIP1 / Fold change vs veh, ARFIP1 / RFU, FAM179B / Fold change vs veh, FAM179B / RFU, BCL10 / Fold change vs veh, BCL10 / RFU, UHRF1BP1L / Fold change vs veh, UHRF1BP1L / RFU, BET1 / Fold change vs veh, BET1 / RFU, CNOT2 / Fold change vs veh, CNOT2 / RFU, ZNF268 / Fold change vs veh, ZNF268 / Fold change vs veh, ZNF507 / RFU, DGCR2 / Fold change vs veh, DGCR2 / RFU, WDSUB1 / Fold change vs veh, WDSUB1 / Fold change vs veh, HSP90B1 /// MIR3652 / RFU, ADSS / Fold change vs veh, ADSS / RFU, GK / Fold change vs veh, GK / RFU, ZNF148 / Fold change vs veh, ZNF148 / RFU, TAF9 / Fold change vs veh, TAF9 / RFU, SLC1A5 / Fold change vs veh, SLC1A5 / RFU, SLMO2 / Fold change vs veh, SLMO2 / RFU, ABCC4 / Fold change vs veh, ABCC4 / RFU, LOC101060439 /// RAP1B / Fold change vs veh, LOC101060439 /// RAP1B / RFU, RFX7 / Fold change vs veh, RFX7 / RFU, GTPBP10 / Fold change vs veh, GTPBP10 / RFU, CNEP1R1 / Fold change vs veh, CNEP1R1 / RFU, BIVM-ERCC5 /// ERCC5 / Fold change vs veh, BIVM-ERCC5 /// ERCC5 / RFU, ILF3 / Fold change vs veh, ILF3 / RFU 11762660_at / Fold change /veh 11762660_at / RFU VCAN (11757783_s_at) / Fold change /veh VCAN (11757783_s_at) / RFU DDX43 (11728927_at) / Fold change /veh DDX43 (11728927_at) / RFU KRT8 (11758188_x_at) / Fold change /veh KRT8 (11758188_x_at) / RFU NKD1 (11759106_at) / Fold change /veh NKD1 (11759106_at) / RFU SRD5A1 (11742802_a_at) / Fold change /veh SRD5A1 (11742802_a_at) / RFU TPSAB1 /// TPSB2 (11721975_s_at) / Fold change /veh TPSAB1 /// TPSB2 (11721975_s_at) / RFU GSTM3 (11746129_a_at) / Fold change /veh GSTM3 (11746129_a_at) / RFU IL23R (11737362_x_at) / Fold change /veh IL23R (11737362_x_at) / RFU TMEM51 (11727254_a_at) / Fold change /veh TMEM51 (11727254_a_at) / RFU PIWIL2 (11732686_x_at) / Fold change /veh PIWIL2 (11732686_x_at) / RFU ORM1 (11744905_x_at) / Fold change /veh ORM1 (11744905_x_at) / RFU CCDC152 (11743942_at) / Fold change /veh CCDC152 (11743942_at) / RFU ECM1 (11717891_a_at) / Fold change /veh ECM1 (11717891_a_at) / RFU IL23R (11748794_a_at) / Fold change /veh IL23R (11748794_a_at) / RFU TNFAIP8L3 (11732012_x_at) / Fold change /veh TNFAIP8L3 (11732012_x_at) / RFU MBOAT4 (11741988_at) / Fold change /veh MBOAT4 (11741988_at) / RFU 11764193_at / Fold change /veh 11764193_at / RFU TMEM53 (11763286_at) / Fold change /veh TMEM53 (11763286_at) / RFU MAGEB2 (11727129_at) / Fold change /veh MAGEB2 (11727129_at) / RFU TMEM200A (11744735_a_at) / Fold change /veh TMEM200A (11744735_a_at) / RFU CCDC152 (11751479_a_at) / Fold change /veh CCDC152 (11751479_a_at) / RFU FAM211A (11726209_a_at) / Fold change /veh FAM211A (11726209_a_at) / RFU RGS16 (11746705_a_at) / Fold change /veh RGS16 (11746705_a_at) / RFU VCAN (11755009_s_at) / Fold change /veh VCAN (11755009_s_at) / RFU RHOB (11743442_s_at) / Fold change /veh RHOB (11743442_s_at) / RFU RGS16 (11720943_a_at) / Fold change /veh RGS16 (11720943_a_at) / RFU RGS16 (11720944_at) / Fold change /veh RGS16 (11720944_at) / RFU, VPS4B / Fold change vs veh, VPS4B / RFU, CREB1 / Fold change vs veh, CREB1 / RFU, DNAJC13 / Fold change vs veh, DNAJC13 / RFU, GNAQ / Fold change vs veh, GNAQ / RFU, CDK5R1 / Fold change vs veh, CDK5R1 / RFU, ZRANB3 / Fold change vs veh, ZRANB3 / RFU, CUL4A / Fold change vs veh, CUL4A / RFU, CCNY / Fold change vs veh, CCNY / RFU, UFL1 / Fold change vs veh, UFL1 / RFU, COG3 / Fold change vs veh, COG3 / RFU, DIAPH2 / Fold change vs veh, DIAPH2 / RFU, SKA2 / Fold change vs veh, SKA2 / RFU, AFF3 / Fold change vs veh, AFF3 / RFU, LMF1 / Fold change vs veh, LMF1 / RFU, IPO11 / Fold change vs veh, IPO11 / RFU, DFFB / Fold change vs veh, DFFB / RFU, FOXP1 / Fold change vs veh, FOXP1 / RFU, CARD8 / Fold change vs veh, CARD8 / RFU, STRN3 / Fold change vs veh, STRN3 / RFU, ADK / Fold change vs veh, ADK / RFU, RASSF2 / Fold change vs veh, RASSF2 / RFU, WIPF1 / Fold change vs veh, WIPF1 / RFU, LARP1B / Fold change vs veh, LARP1B / RFU, RASA1 / Fold change vs veh, RASA1 / RFU, RB1 / Fold change vs veh, RB1 / RFU, PPFIA1 / Fold change vs veh, PPFIA1 / RFU, MAT2A / Fold change vs veh, MAT2A / RFU, CCT5 / Fold change vs veh, CCT5 / RFU, WDR92 / Fold change vs veh, WDR92 / RFU, CUX1 / Fold change vs veh, CUX1 / RFU, TTC7A / Fold change vs veh, TTC7A / RFU, TMEM135 / Fold change vs veh, TMEM135 / RFU, DEPTOR / Fold change vs veh, DEPTOR / RFU, CPM / Fold change vs veh, CPM / RFU, DNAJB6 / Fold change vs veh, DNAJB6 / RFU, CACNA2D3 / Fold change vs veh, CACNA2D3 / RFU, DTX4 / Fold change vs veh, DTX4 / RFU, TFCP2 / Fold change vs veh, TFCP2 / RFU, GMCL1 /// GMCL1P1 / Fold change vs veh, GMCL1 /// GMCL1P1 / RFU, AEBP2 / Fold change vs veh, AEBP2 / RFU, SNHG1 /// SNORD22 /// SNORD25 /// SNORD26 /// SNORD27 /// SNORD28 /// SNORD29 /// SNORD31 / Fold change vs veh, SNHG1 /// SNORD22 /// SNORD25 /// SNORD26 /// SNORD27 /// SNORD28 /// SNORD29 /// SNORD31 / Fold change (Aza/veh), C12orf56 (ProbeSet 11735607_a_at) / Fold change (ACY-1035/veh), C12orf56 (ProbeSet 11735607_a_at) / Fold change (Aza/veh), FGFR1OP (ProbeSet 11751329_s_at) / Fold change (ACY-1035/veh), FGFR1OP (ProbeSet 11751329_s_at) / Fold change (Aza/veh), VPS36 (ProbeSet 11739960_a_at) / Fold change (ACY-1035/veh), VPS36 (ProbeSet 11739960_a_at) / RFU SYPL1 (11715823_x_at) / Fold change /veh SYPL1 (11715823_x_at) / RFU IGFBP7 (11715501_s_at) / Fold change /veh IGFBP7 (11715501_s_at) / RFU REEP3 (11722064_at) / Fold change /veh REEP3 (11722064_at) / RFU IGLL1 (11728026_x_at) / Fold change /veh IGLL1 (11728026_x_at): dose or concentration left out as unconfirmed
Conditions: ProbeSet 11719817_x_at; LIST B

Compound: Nc1ccc(-c2cccs2)cc1NC(=O)c1ccc2c(c1)cc(C1CC1)n2CCN1CCOCC1 [ACY-1035]
- RFU, BET1: 86.19 RFU

From PMC5218480 (PLoS ONE, 2017)
